Measured values taken from EP0771564A1, “INTERLEUKIN-5 PRODUCTION INHIBITOR” (TAISHO PHARMACEUTICAL CO. LTD, priority 1994, dated 1996).

Legend:
IL-5 production = assay: Inhibition of IL-5 production by antigen-stimulated murine Th2 clone D10.G4.1 cells (IL-5 ELISA of culture supernatant); type: cell-based, mice; details: inhibitory effect on IL-5 production, D10.G4.1 cells with MMC-treated antigen presenting cells and conalbumin, 48 hours incubation
Method: Murine Th2 clone (D10.G4.1 cells) was purchased from ATCC. Antigen presenting cells were prepared by suspending 1 x 10^7 spleen cells of a 8-week-old female C3H/HeN mice in 5 ml of an RPMI-1640 medium and incubated together with 50 µg/ml of mitomycin C (MMC) at 37°C for 30 minutes and then washed with three 50 ml portions of RPMI-1640. To RPMI-1640 containing 10% bovine serium were added 0.5 U of IL-2 (produced by Genzyme) and 5 x 10^-5 M of 2-mercaptoethanol to prepare a medium for tissue culture.
In each well of a 96-well microtiter plate (produced by Corning Glass Works) were put each 50 µl/well of 4 x 10^5 cells/ml of D10.G4.1 cells, 2 x 10^6 cells/ml of MMC-treated antigen presenting cells, 400 µg/ml of conalbumin (produced by Sigma) as an antigen and the solution of the test compound in the tissue culture medium (to make 200 µl/well), and incubated in an incubator under 5% CO2 at 37°C for 48 hours. After completion of the incubation, the supernatant liquor of the culture was collected, and the cells were seprated by centrifugation. The IL-5 in the supernatant liquor was determined with an IL-5 ELISA kit produced by ENDOGEN.

ICR male mice = assay: Oral administration safety test in mice (mortality); type: in vivo; details: orally administered to ICR male mice, dose level of 100 mg/kg
Excerpt: The compounds of Examples 1 and 2 were orally administered to ICR male mice grouped in fives.

| IC50 (IL-5 production; Mus musculus) [µM] | Compound | IC50 (IL-5 production) [µM] | death (ICR male mice) |
| --- | --- | --- | --- |
|  | 3-O-(4-Biphenyl)acetyl-5-O-desosaminyl-6-O-methylerythronolide A 11,12-Cyclic Carbonate [Compound of Example 1] | < 0.4 |  |
|  | CCC1OC(=O)C(C)C(Oc2c(F)c(F)c(F)c(F)c2[N+](=O)[O-])C(C)C(OC2OC(C)CC(N(C)C)C2O)C(C)(OC)CC(C)C(=O)C(C)C(O)C1(C)O (centres unmarked) [Compound of Example 2, 3-O-(2-Nitro-3,4,5,6-tetrafluoro)-phenyl-5-O-desosaminyl-6-O-methylerythronolide A] | < 0.1 | No death was observed |
| 4.5 | CC[C@H]1OC(=O)[C@H](C)[C@@H](O[C@H]2C[C@@](C)(OC)[C@@H](O)[C@H](C)O2)[C@H](C)[C@@H](O[C@@H]2O[C@H](C)C[C@H](N(C)C)[C@H]2O)[C@](C)(O)C[C@@H](C)C(=O)[C@H](C)[C@@H](O)[C@]1(C)O [Erythromycin, reference compound] |  |  |
| 0.93 | CC[C@H]1OC(=O)[C@H](C)[C@@H](O[C@H]2C[C@@](C)(OC)[C@@H](O)[C@H](C)O2)[C@H](C)[C@@H](O[C@@H]2O[C@H](C)C[C@H](N(C)C)[C@H]2O)[C@](C)(O)C[C@@H](C)/C(=N\OCOCCOC)[C@H](C)[C@@H](O)[C@]1(C)O [Roxithromycin, reference compound] |  |  |
